What was measured:
[1] = system: PAI-1; assay: PAI-1 induction in BEAS-2B, SAEC and NHBE cells; format: cell-based, human; conditions: SB203580
Text: J. Physiol. Lung Cell. Mol. Physiol. 281:L616-23 (2001), and Hasegawa et al., “Decreased Intracellular Iron Availability Suppresses Epithelial Cell Surface Plasmin Generation. Transcriptional and Post-transcriptional Effects on u-PA and PAI-1 Expression,” Am. J. Respir. Cell. Mol. Biol. 21:275-82 (1999), each of which is hereby incorporated by reference in its entirety. Wild type and Cyld-deficient mouse embryonic fibroblasts were obtained from E13 embryos and maintained in DMEM supplemented with 10% FBS (Invitrogen). […]
Cells were cultured on 12-well plates and transfected with various expression plasmids, as described in Examples 1-15 and the Brief Description of the Drawings. […] After 5 hours, the cells were harvested for either RNA extraction and real-time quantitative PCR analysis as described in the Examples or luciferase assay. […]
Total RNA was isolated with TRIzol reagent (Invitrogen) by following the manufacturer's instructions. Real-Time Quantitative RT-PCR analysis of PAI-1 and CYLD were performed as described in Jono et al., “NF-κB Is Essential for Induction of CYLD, the Negative Regulator of NF-κB: Evidence for a Novel Inducible Autoregulatory Feedback Pathway,” J. Biol. Chem. 279:36171-4 (2004), which is hereby incorporated by reference in its entirety. […]

[2] = system: Cyld−/− mice; assay: Survival of Cyld−/− mice inoculated with S. pneumoniae after pretreatment; format: in vivo, mouse; conditions: SB203580 10 mg/kg intraperitoneally 2 hours before S. pneumoniae inoculation
Description: For S. pneumoniae-induced lethal infections in wild type, Cyld^−/−, Mkk3^−/−, and PAI-1^−/− mice, anaesthetized mice were intratracheally inoculated with live S. pneumoniae, S. pneumoniae wild type or pneumolysin mutant lysate, or pneumolysin (“PLY”), at a concentration of 5×10^7CFU per mouse for live bacteria and bacterial lysate and 200 ng/mouse for PLY in all experiments unless otherwise indicated, and saline was inoculated as control. The mice were monitored for lethality every 2 hours for the first 12 hours and every 12 hours for 5 days thereafter. To assess the effect of perturbing p38 MAPK signaling on S. pneumoniae-induced lethality in Cyld^−/− mice, Cyld^−/− mice were pretreated with the p38 inhibitor SB203580 (10 mg/kg, intraperitoneally in Cyld^−/− mice) 2 hours before S. pneumoniae inoculation, and mice were then intratracheally inoculated with S. pneumoniae. To determine the effect of administration of exogenous PAI-1 on S. pneumoniae-induced lethality, mice were intratracheally administered with mouse rPAI-1 (12.5 μg/mouse) or saline as control, followed by S. pneumoniae and PLY inoculation 1 day after PAI-1 administration. For PAI-1 neutralization in Cyld^−/− mice, Cyld^−/− mice were intraperitoneally injected with α-PAI-1 mAb (25 μg/mouse for histological analysis and 50 μg/mouse for lethality) 2 hours before S. pneumoniae inoculation. Mouse IgG was used as control. […] Lung tissues were then subjected to histological analysis and total mRNA and protein extraction. In all Examples, saline was used as a control unless otherwise specified.
To assess the effect of perturbing NF-κB signaling on S.p.-induced lethality in Cyld^−/− mice, Cyld^−/− mice were pretreated with the IKK inhibitor Wedelolactone (10 mg/kg, intraperitoneally) 2 hours before S.p. inoculation, and mice were then intratracheally inoculated with S.p.
Differences in survival between wild-type, Cyld-deficient (“Cyld^−/−”), Mkk3-deficient (“Mkk3^−/−”), and PAI/−/−deficient (“PAI-1^−/−”) mice after saline, S. pneumoniae, S. pneumoniae lysate, and/or pneumolysin inoculation with or without SB203580, rPAI-1, or α-PAI-1 mAb were determined by Kaplan-Meier analysis. All tests were performed using SPSS14.0 software (SPSS Inc.). All in vivo survival rate data were evaluated by Log Lank test. All other in vivo and in vitro data were evaluated by Student t-test. Statistical significance was accepted at a value of p<0.05.

## C[S+]([O-])c1ccc(-c2nc(-c3ccncc3)c(-c3ccc(F)cc3)[nH]2)cc1 (stereo not shown) [SB203580]
[1]
  PAI-1 induction by S. pneumoniae WT and PLY: inhibited PAI-1 induction
[2]
  inoculated mice died within 48 hours: approximately 80%
  survival: 20%
  time after inoculation at which mice started to die: 12 h
